One molecule from patent publication US5672603A, “Apoptosis regulating composition” (Otsuka Pharmaceutical Co., Ltd., priority 1991, dated 1997) can be followed below.

The test system of one assay is HL-60 cells. Nature of the assay: Induction of differentiation of HL-60 cells (CD11b expression, flow cytometry). It counts as cell-based, human. The arrangement: reference not given here. The conditions noted are these: 30 μg/ml; 3 days; CD11b fluorescence. As for the experimental part:
HL-60 cells were cultivated in RPMI-1640 medium supplemented with 10% of FCS at 37° C. under 5% CO2, and the cell concentration was adjusted to 5×10^4 cells/ml.
Then, the above-mentioned medium containing 30 μg/ml of each test compound was added to each well of 6-well microplates (Costar), followed by 3 days of incubation at 37° C. under 5% CO2. In a control group, the above medium alone was added and incubation was performed in the same manner. Thereafter, each cultured cell suspension was sampled into an Eppendorf tube and, after staining with 0.2% trypan blue-containing phosphate buffer, viable cells were counted using a hematocytometer.
The above cells were adjusted to 1×10^7 cells/ml. To 100 μl of the cell suspension was added 5 μl of a solution of fluorescein isothiocyanate (FITC)-labeled anti-human CD11b antibody (Mol; Coulter) and the reaction was allowed to proceed on ice in the dark for 30 minutes. Then, cells were washed twice with PBS (phosphate-buffered saline; Nissui Pharmaceutical) containing 0.1% of BSA (bovine serum albumin; Sigma), finally suspended in 500 μl of the BSA-containing PBS and measured for fluorescence intensity by flow cytometry using Profile II (Coulter).
(In general: A flow cytometer gives signals particle by particle.)

In assay [1] the test system is acute hepatic failure model. Nature of the assay: Effect on hepatic failure (heat-killed bacteria / LPS), survival. The class given is in vivo, Balb/c mice. As to conditions: for Survival rate: 7 days after LPS, untreated 0%, solvent 10%. As for the experimental part:
Heat-killed cells of P. aches (a gift from Dr. Mizoguchi, the Third Department of Internal Medicine, Osaka City University School of Medicine) were administered intravenously in a dose of 3 mg/body to male Balb/c mice (7 weeks old, purchased from Japan SLC). Seven days later; a solvent group (0.5% CMC, Dai-ichi Kogyo Seiyaku Co., Ltd) and an untreated group, as well as the test groups given 10 or 100 mg/kg of Compound 1 orally, were provided. One hour after administration of Compound 1, 5 μg/body of lipopolysaccharide (LPS, Sigma Co., Ltd.) was administered intravenously to induce acute hepatic failure.

Another assay relates to PC12 cells. Nature of the assay: Effect on PC12 cells (morphology, phase contrast microscope).
Assay [2] concerns human adult T cell leukemic cells (5S). Description: ATL-infected cell growth inhibition test: ATLV-infected cells. As to conditions: for Number of ATLV-infected cells: 4 days, control 6.5. It counts as cell-based. As for the experimental part:
Human adult T cell leukemia cells (5S) were used to prepare a suspension of 1×10^5 cells/ml in RPMI-1640 medium (Gibco) supplemented 10% fetal calf serum (FCS, Gibco) for use as ATL virus-infected cells.
Compound 1 was dissolved in hydrochloric acid, diluted with the same medium as above, neutralized with 2N NaOH and adjusted to concentrations of 1 μg/ml, 10 μg/ml and 30 μg/ml.
The cells prepared in (a) and (b) above were respectively placed in wells of a 24-well culture plate (Nunc), followed by addition of the test compound prepared in (c) (final concentration: 1 μg/ml, 10 μg/ml or 30 μg/ml), and cultured at 37° C. in a 5% carbon dioxide incubator for 4 days. As a control, the medium without addition of the test compound was used. After completion of incubation, the cell suspension in each well was taken for determination of viable cells.

A further assay deals with CMK cells. Description: Morphological observation of CMK cells. The class given is cell-based, human. As to conditions: 30 μg/ml; 4 days. As for the experimental part:
CMK cells, 1×10^5 cells/ml, were incubated in 10% FCS-added RPMI-1640 medium containing Compound 1 for 4 days and observed for the morphology of cells under the phase contrast microscope. A portion of the cell population was taken and a cytospin preparation was prepared and stained with Wright-Giemsa stain for determination of the cell morphology.
Thus, FIGS. 4 and 6 are the phase constrast micrograph and stained map, respectively, of the medium control, and FIGS. 5 and 7 represent the corresponding figures for cells treated with 30 μg/ml of Compound 1.

“Also recorded” adds a separate entry of the source.

Protocol for PC12 cells: PC12 cells subcultured in Dulbecco's modified Eagle's medium (D-MEM) supplemented with 5% heat-inactivated (56° C., 30 minutes) horse serum and 10% fetal calf serum (FCS) were transferred onto collagen-coatedplastic Petri dishes (35 mm in diameter) at a concentration of 6×10^4 cells/3 ml medium.

With `COc1ccc(C(=O)N2CCN(c3ccc4c(c3)CCC(=O)N4)CC2)cc1OC` [Compound 1, 6-[4-(3,4-Dimethoxybenzoyl)-1-piperazinyl]-3,4-dihydrocarbostyril], in the assay on HL-60 cells, the “Induction of differentiation promoting effect” value came to 322. In addition, the Survival rate in assay [1] (10 mg/kg oral) is on record as 30%; in assay [1] (100 mg/kg oral), 70%. Besides, in assay [1] (10 and 100 mg/kg oral), the “Life-prolonging effect in acute hepatitis model (in words)” value is “dose-dependent and excellent life-prolonging effect”. Besides, in the assay on PC12 cells (30 μg/ml, day 3), the “Cells with morphological changes induced” value is 30-50 % of the total cell population. Further, the “Formation of nerve fiber-like processes” value in the assay on PC12 cells (30 μg/ml, most prominent with FCS 0.3%, day 3) is “formation of nerve fiber-like processes; also recorded: formation of nerve-like processes is observed”. For the same molecule, the “Elongation of the process, combination of Compound 1 and NGF” value with PC12 cells (with NGF, 0.3% FCS, vs Compound 1 or NGF alone) is “promotes elongation of the process as compared with Compound 1 or NGF alone”. For the same molecule, the “Number of ATLV-infected cells” value in assay [2] (1 μg/ml) is on record as 0.6 ×10^5; in assay [2] (10 μg/ml), 0.2 ×10^5; in assay [2] (30 μg/ml), 3.3 ×10^5. Besides, in assay [2] (at least 1 μg/ml), the “Growth inhibition of ATLV-infected cells (in words)” value was “potent inhibitory effect on the growth of ATLV-infected cells”. Besides, in the assay on CMK cells, the “Morphology, Wright-Giemsa stained map” value is “budding of the cell membrane and lobulation of the nuclei”. Further, the “Morphology, phase contrast micrograph” value in the assay with CMK cells is on record as “fragmentation of cells like in the process of platelet production”.
